The values that follow are results of earlier work, collected in article PMC2757550 (Bioconjugate chemistry, 2009).

The test system of the data set is mouse vas deferens preparation.

Dmt-Tic-Glu-NH(CH2)5NH-fluorescein: the “removal from preparation by extensive washing (in words)” value is reported as “cannot be removed from the mouse vas deferens preparation by extensive washing”.
